From US9375434B2, “Antitumor effect potentiator composed of imidazooxazine compound” (Taiho Pharmaceutical Co., Ltd., priority 2012, dated 2016)

Experiments:
[1] = system: Human ovarian cancer cell line (A2780); assay: Potentiation of antitumor effect of carboplatin, A2780 subcutaneous implant (Test Example 3); type: in vivo, nude rats; settings: compound-I 16 mg/kg/day p.o. day 1-14
Method: In the figure, the asterisk represents a result having a statistically significant difference compared with the single-drug administration group. FIG. 1 and Table 10 show the results. […] Carboplatin was prepared by diluting a […] injection (Bristol-Myers Squibb, 50 mg/5 mL) two-fold with physiological saline to enable administration at a carboplatin dose of 50 mg/kg/day. Further, the test liquid of Compound-I was prepared by adjusting its dose to 16 mg/kg/day. […] The single-drug administration group was administered 0.5% HPMC or a physiological saline as a vehicle instead of Compound-I or carboplatin. […] FIG. 5 and Table 12 show the results. […] The effect of the combined administration was also statistically determined in the same manner as in Test Example 1. In the figure and the table, the asterisk represents a result having a statistically significant difference compared with the single-drug administration group.

[2] = system: Human stomach cancer cell line (NCI-N87); assay: Potentiation of antitumor effect of everolimus, NCI-N87 subcutaneous implant in nude mice (Test Example 7); type: in vivo, BALB/cA Jcl-nu/nu mice; settings: compound-I 16 mg/kg/day p.o. day 1-14
Method: (§1) As an index of antitumor effect, the TV at Day 15 was measured for each of the drug administration groups, and the relative tumor volume (RTV) relative to Day 1 and T/C (%) were calculated by the following formulas to evaluate the antitumor effect. […] In the figure, the asterisk represents a result having a statistically significant difference compared with the single-drug administration group.
(§2) FIG. 1 and Table 10 show the results. TV (mm^3)=(length×width^2)/2 RTV=(TV at Day 15)/(TV at Day 1) T/C(%)=(average RTV value of the test liquid administration group)/(average RTV value of the control group)×100
Human stomach cancer cell line (NCI-N87) was subcutaneously implanted into the right flank of 7-week-old male BALB/cA Jcl-nu/nu mice, and was used in the same manner as in Test Example 1.
In the group receiving only everolimus (IS Chemical Technology), the test liquid was prepared to enable administration at an everolimus dose of 5 mg/kg/day. A vehicle of 5% ethyl alcohol/5% PEG400/4% Tween 20/86% distilled water was used. In the groups receiving only Compound-I, the test liquid was prepared by diluting Compound-I with 0.5% HPMC to enable administration at a Compound-I dose of 16 mg/kg/day. In the combined administration group, Compound-I was administered at a dose of 16 mg/kg/day, and everolimus was administered at a dose of 5 mg/kg/day. Both Compound-I and everolimus were orally administered once a day for 14 days from Day 1, and the evaluation was performed in the same manner as in Test Example 1. FIG. 13 and Table 16 show the results.
In the figure and the table, the asterisk represents a result having a statistically significant difference compared with the single-drug administration group.

[3] = system: Human stomach cancer cell line (4-1ST); assay: Potentiation of antitumor effect of TS-1, 4-1ST subcutaneous implant in nude mice (Test Example 8); type: in vivo, BALB/cA Jcl-nu/nu mice
Method: as §1, §2
Human stomach cancer cell line (4-1ST) was subcutaneously implanted into the right flank of 6-week-old male BALB/cA Jcl-nu/nu mice, and was used in the same manner as in Test Example 1.
TS-1 was prepared by mixing FT (tegafur; Taiho Pharmaceutical Co., Ltd.), CDHP (gimeracil; Taiho Pharmaceutical Co., Ltd.) and Oxo (oteracil potassium; Taiho Pharmaceutical Co., Ltd.) at a molar ratio of 1:0.4:1, adding a 0.5% (w/v) HPMC aqueous solution to the mixture at an FT concentration of 1.66 mg/mL, and subjecting the mixture to a ultrasonic treatment to obtain an even suspension (an administration liquid having a double concentration of the liquid in the group of 8.3 mg/kg/day dose). The suspension was diluted two-fold with a 0.5% (w/v) HPMC aqueous solution to a concentration of 0.83 mg/mL, thereby yielding an administration liquid to be used for the group of 8.3 mg/kg/day dose. Further, the test liquid of Compound-I was prepared by adjusting its dose to 16 and 24 mg/kg/day.
Compound-I and TS-1 were orally administered once a day for 14 days from Day 1. In the combined administration groups, Compound-I at a dose of 16 and 24 mg/kg/day, and TS-1 at a dose of 8.3 mg/kg/day were administered, and the evaluation was performed in the same manner as in Test Example 1. FIGS. 15A and 15B, and Table 17 show the results.
In the same manner as in Test Example 7, the effect of the combined administration was also statistically determined. In the figure and the table, the asterisk represents a result having a statistically significant difference compared with the single-drug administration group.

[4] = compound-I 16 mg/kg/day p.o. day 1-14
[5] = compound-I 24 mg/kg/day p.o. day 1-14

## CC1(O)CC(N)(c2ccc(-c3nc4n(c3-c3ccccc3)COc3ccncc3-4)cc2)C1 (stereo not drawn) [compound-I, trans-3-amino-1-methyl-3-(4-(3-phenyl-5H-imidazo[1,2-c]pyrido[3,4-e][1,3]oxazin-2-yl)phenyl)cyclobutanol]
[1]
  RTV day 15 Mean ± SD: 20.86 ± 4.84
  T/C (%): 81%
[2]
  RTV day 15 Mean ± SD: 1.19 ± 0.27
  T/C (%): 43%
[3]; [4]
  RTV day 15 Mean ± SD: 4.53 ± 0.59
  T/C (%): 38.1%
[3]; [5]
  RTV day 15 Mean ± SD: 3.83 ± 0.48
  T/C (%): 32.2%
